In US5053561A, “Method of isolating trans-1,1,4,4-tetraalkyl-2-butene-1,4-diols” (BASF Aktiengesellschaft, priority 1989, dated 1991):

Experiment: Determination of the distribution coefficients between polar and non-polar phases
Format: physicochemical
Conditions: for Distribution coefficient k: 25° C.; for phase in which the isomer accumulates: seen from the distribution coefficients of Table 1
Excerpt: To achieve separation of the cis- and trans-isomers of the alkenediols I which is as complete, efficient and economical as possible, it is necessary, when selecting the solvents for the polar and non-polar phases, to ensure that the quotient of the distribution coefficients ktrans /kcis of the trans- and cis-isomers between the polar and non-polar phases is as large as possible. The distribution coefficient k of the cis- or trans-isomer is defined as the concentration of isomer in the polar phase divided by the concentration of the same isomer in the non-polar phase in the equilibrium state, as illustrated by the following equations (1) and (2): [formula]
2 g of cis- or trans-alkenediol were dissolved, at 25° C., in a mixture of 40 ml of a polar solvent and 40 ml of a non-polar solvent. The mixture was vigorously shaken in a separating funnel for 10 minutes. Following separation of the phases, the solvents were removed by distillation under reduced pressure. The residues were weighed, and the results were used to calculate the distribution coefficients as defined in equations (1) and (2) above (see Table 1 below).

[1] = polar phase water + 2% methanol, non-polar phase toluene
[2] = polar phase water + 10% ethanol, non-polar phase toluene
[3] = polar phase water, non-polar phase cyclohexane
[4] = polar phase water, non-polar phase methyl cyclohexane
[5] = polar phase water, non-polar phase methyl isobutylketone
[6] = polar phase water, non-polar phase methylene chloride
[7] = polar phase water, non-polar phase n-hexane
[8] = polar phase water, non-polar phase toluene

| Compound | Distribution coefficient k [1] | Distribution coefficient k [2] | Distribution coefficient k [3] | Distribution coefficient k [4] | Distribution coefficient k [5] | Distribution coefficient k [6] | Distribution coefficient k [7] | Distribution coefficient k [8] | phase in which the isomer accumulates |
| --- | --- | --- | --- | --- | --- | --- | --- | --- | --- |
| CC(C)(O)/C=C\C(C)(C)O [cis, cis-2,5-dimethyl-3-hexene-2,5-diol] | 0.39 | 0.35 | 0.56 | 0.61 | 0.09 | 0.17 | 0.76 | 0.38 | accumulates in the non-polar phase |
| CC(C)(O)/C=C/C(C)(C)O [trans, trans-2,5-dimethyl-3-hexene-2,5-diol] | 62 | 23 | 30 | 52 | 3.0 | 7.3 | 34 | 25 | accumulates in the polar phase |
